Reference: ChEMBL document CHEMBL3585342, “Exploring the isoform selectivity of TGX-221 related pyrido[1,2-a]pyrimidinone-based Class IA PI 3-kinase inhibitors: synthesis, biological evaluation and molecular modelling” (Bioorg Med Chem, 2015)

Key:
[1] = target: Phosphatidylinositol 4,5-bisphosphate 3-kinase catalytic subunit alpha isoform (Homo sapiens, UniProt P42336); type: cell-based, Sf9
Description: Inhibition of N-terminal His-tagged human p110alpha expressed in Sf9 cells co-expressing p85alpha regulatory subunit using phosphatidylinositol substrate and [gamma-33P]-ATP by basic thin layer chromatography technique based lipid kinase assay

[2] = target: Phosphatidylinositol 4,5-bisphosphate 3-kinase catalytic subunit beta isoform (Homo sapiens, UniProt P42338); type: cell-based, Sf9
Description: Inhibition of N-terminal His-tagged human p110beta expressed in Sf9 cells co-expressing p85alpha regulatory subunit using phosphatidylinositol substrate and [gamma-33P]-ATP by basic thin layer chromatography technique based lipid kinase assay

[3] = target: T1, Phosphatidylinositol 4,5-bisphosphate 3-kinase catalytic subunit delta isoform (Homo sapiens, UniProt O00329); type: cell-based, Sf9
T1 sequence (O00329 whole entry): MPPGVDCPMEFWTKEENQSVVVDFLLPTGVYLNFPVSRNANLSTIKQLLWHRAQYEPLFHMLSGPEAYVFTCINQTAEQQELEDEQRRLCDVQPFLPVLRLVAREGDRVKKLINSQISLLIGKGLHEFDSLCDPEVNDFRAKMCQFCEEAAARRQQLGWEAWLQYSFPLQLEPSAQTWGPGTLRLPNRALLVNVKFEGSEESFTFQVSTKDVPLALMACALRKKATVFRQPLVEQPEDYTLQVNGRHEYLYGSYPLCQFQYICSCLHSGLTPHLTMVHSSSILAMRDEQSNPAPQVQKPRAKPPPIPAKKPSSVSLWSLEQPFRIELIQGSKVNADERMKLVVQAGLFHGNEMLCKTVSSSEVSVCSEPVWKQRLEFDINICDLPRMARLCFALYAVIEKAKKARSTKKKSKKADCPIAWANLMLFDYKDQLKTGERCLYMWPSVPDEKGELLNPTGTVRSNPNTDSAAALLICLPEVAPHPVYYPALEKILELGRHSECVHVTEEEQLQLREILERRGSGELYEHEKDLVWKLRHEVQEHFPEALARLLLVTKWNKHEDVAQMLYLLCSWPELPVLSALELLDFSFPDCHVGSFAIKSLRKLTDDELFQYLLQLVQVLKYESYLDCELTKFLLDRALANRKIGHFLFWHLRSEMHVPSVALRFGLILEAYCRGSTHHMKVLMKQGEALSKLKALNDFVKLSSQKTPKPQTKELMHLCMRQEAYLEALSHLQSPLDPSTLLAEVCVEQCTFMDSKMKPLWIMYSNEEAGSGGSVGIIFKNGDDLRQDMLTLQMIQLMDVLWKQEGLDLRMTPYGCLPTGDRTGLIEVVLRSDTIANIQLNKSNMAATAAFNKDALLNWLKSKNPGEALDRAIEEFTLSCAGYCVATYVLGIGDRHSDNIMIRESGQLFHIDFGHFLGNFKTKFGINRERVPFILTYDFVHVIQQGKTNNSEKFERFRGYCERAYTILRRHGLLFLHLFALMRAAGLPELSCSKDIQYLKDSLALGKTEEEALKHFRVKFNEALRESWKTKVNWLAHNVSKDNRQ
Description: Inhibition of N-terminal His-tagged human p110delta expressed in Sf9 cells co-expressing p85alpha regulatory subunit using phosphatidylinositol substrate and [gamma-33P]-ATP by basic thin layer chromatography technique based lipid kinase assay

[4] = Inhibition of cell proliferation of human NZB5 cells containing wild-type p110alpha gene incubated for 5 days by [3H]thymidine incorporation assay; type: functional, cell-based
[5] = Inhibition of cell proliferation of human NZOV9 cells containing wild-type p53 protein and p110alpha Y1021C mutant incubated for 5 days by [3H]thymidine incorporation assay; type: functional, cell-based

Chain of Phosphatidylinositol 4,5-bisphosphate 3-kinase catalytic subunit beta isoform (P42338 whole entry, canonical isoform): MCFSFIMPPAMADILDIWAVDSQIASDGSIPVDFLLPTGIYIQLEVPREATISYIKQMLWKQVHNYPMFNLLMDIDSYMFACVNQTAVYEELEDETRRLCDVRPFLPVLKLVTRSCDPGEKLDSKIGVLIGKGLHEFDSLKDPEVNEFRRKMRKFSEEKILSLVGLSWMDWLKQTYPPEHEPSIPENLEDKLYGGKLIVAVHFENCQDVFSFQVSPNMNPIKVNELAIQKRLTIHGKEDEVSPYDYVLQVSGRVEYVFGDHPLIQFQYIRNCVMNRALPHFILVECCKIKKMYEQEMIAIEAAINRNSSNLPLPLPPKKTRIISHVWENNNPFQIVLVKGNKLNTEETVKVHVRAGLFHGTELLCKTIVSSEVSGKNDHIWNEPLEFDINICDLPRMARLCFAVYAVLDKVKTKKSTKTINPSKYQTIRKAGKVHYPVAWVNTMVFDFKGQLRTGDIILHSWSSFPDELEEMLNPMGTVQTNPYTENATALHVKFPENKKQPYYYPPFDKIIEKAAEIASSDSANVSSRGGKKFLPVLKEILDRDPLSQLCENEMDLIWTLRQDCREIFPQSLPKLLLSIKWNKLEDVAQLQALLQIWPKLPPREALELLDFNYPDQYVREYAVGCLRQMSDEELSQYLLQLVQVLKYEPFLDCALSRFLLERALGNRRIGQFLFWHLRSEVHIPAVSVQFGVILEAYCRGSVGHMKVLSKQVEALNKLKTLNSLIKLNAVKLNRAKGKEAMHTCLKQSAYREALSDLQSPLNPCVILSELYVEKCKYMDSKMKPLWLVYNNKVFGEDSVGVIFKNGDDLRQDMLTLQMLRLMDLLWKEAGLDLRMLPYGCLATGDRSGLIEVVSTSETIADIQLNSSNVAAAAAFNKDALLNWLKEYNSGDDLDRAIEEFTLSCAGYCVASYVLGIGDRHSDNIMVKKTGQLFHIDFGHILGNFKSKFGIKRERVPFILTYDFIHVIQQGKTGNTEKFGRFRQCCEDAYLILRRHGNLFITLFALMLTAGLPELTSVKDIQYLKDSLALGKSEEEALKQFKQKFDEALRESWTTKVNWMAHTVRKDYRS
Chain of Phosphatidylinositol 4,5-bisphosphate 3-kinase catalytic subunit alpha isoform (P42336 whole entry, canonical isoform): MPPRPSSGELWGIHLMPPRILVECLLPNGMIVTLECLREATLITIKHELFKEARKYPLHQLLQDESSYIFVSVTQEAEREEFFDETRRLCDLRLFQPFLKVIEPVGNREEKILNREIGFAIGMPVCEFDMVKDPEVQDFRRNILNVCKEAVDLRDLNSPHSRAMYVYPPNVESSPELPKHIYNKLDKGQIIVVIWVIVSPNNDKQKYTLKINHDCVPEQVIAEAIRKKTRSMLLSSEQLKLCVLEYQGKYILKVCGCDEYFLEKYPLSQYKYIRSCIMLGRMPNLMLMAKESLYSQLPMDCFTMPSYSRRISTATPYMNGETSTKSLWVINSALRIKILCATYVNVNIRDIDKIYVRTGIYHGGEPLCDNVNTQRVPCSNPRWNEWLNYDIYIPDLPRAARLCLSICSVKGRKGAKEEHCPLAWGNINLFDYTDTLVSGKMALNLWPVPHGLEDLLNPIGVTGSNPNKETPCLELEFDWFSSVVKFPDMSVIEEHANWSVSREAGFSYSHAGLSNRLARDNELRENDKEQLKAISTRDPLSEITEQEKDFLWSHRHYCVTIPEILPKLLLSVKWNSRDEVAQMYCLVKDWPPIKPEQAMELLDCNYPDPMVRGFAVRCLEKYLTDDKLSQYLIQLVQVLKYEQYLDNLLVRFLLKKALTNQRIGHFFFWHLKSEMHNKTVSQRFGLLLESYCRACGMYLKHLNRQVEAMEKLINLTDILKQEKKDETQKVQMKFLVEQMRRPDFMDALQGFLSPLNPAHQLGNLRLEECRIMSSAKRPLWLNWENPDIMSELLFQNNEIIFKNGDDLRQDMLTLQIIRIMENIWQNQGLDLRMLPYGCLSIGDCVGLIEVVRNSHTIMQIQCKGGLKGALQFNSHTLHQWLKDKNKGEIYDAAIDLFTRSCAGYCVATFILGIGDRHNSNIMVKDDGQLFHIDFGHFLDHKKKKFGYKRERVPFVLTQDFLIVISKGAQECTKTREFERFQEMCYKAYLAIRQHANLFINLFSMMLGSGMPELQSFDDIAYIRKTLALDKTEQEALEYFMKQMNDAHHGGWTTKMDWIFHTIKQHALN

SMILES | IC50 [1] | IC50 [2] | IC50 [3] | IC50 [4] | IC50 [5]
O=C(NCc1ccncc1)c1cccn2c(=O)cc(N3CCOCC3)nc12 | 6400 nM | > 10000 nM | > 10000 nM | 12000 nM | > 20000 nM
Cc1cc(NCc2ccncc2)c2nc(N3CCOCC3)cc(=O)n2c1 | 4900 nM | 4200 nM | 710 nM | 14000 nM | 14000 nM
Cc1ccc(OCc2cccn3c(=O)cc(N4CCOCC4)nc23)cc1 | 2500 nM | 1000 nM | 550 nM | 13000 nM | 8200 nM
Cc1cc(NCc2ccccn2)c2nc(N3CCOCC3)cc(=O)n2c1 | 2000 nM | 420 nM | 800 nM | 2400 nM | 7000 nM
O=c1cc(N2CCOCC2)nc2c(CNc3ccc(Cl)cc3)cccn12 | 3100 nM | 310 nM | 1100 nM | > 20000 nM | 15000 nM
Cc1cc(Nc2c(C)cccc2C)c2nc(N3CCOCC3)cc(=O)n2c1 | 3900 nM | 2100 nM | 500 nM | 1500 nM | 1300 nM
O=C(NCc1cccnc1)c1cccn2c(=O)cc(N3CCOCC3)nc12 | 6500 nM | > 10000 nM | > 10000 nM | 18000 nM | > 20000 nM
Cc1cc(N[C@@H](C)c2ccccc2)c2nc(N3CCOCC3)cc(=O)n2c1 | 2200 nM | 210 nM | 270 nM | 700 nM | 600 nM
Cc1cc(N[C@H](C)c2ccccc2)c2nc(N3CCOCC3)cc(=O)n2c1 | 2700 nM | 2300 nM | 800 nM | 700 nM | 800 nM
N#Cc1ccc(OCc2cccn3c(=O)cc(N4CCOCC4)nc23)cc1 | > 10000 nM | 1000 nM | 1500 nM | > 20000 nM | 18000 nM
O=c1cc(N2CCOCC2)nc2c(CS(=O)(=O)c3ccccc3)cccn12 | > 10000 nM | 4800 nM | > 10000 nM | > 20000 nM | > 20000 nM
Cc1ccc(Nc2cc(C)cn3c(=O)cc(N4CCOCC4)nc23)cc1 | 2900 nM | 3200 nM | 1000 nM | 1000 nM | 1600 nM
Cc1cccc(Nc2cc(C)cn3c(=O)cc(N4CCOCC4)nc23)c1 | > 1000 nM | 1200 nM | 470 nM | 900 nM | 600 nM
Cc1cc(NCc2cccnc2)c2nc(N3CCOCC3)cc(=O)n2c1 | > 10000 nM | 590 nM | 450 nM | 8200 nM | 7900 nM
Cc1cc(N(C)c2ccccc2)c2nc(N3CCOCC3)cc(=O)n2c1 | 4400 nM | 670 nM | 900 nM | 2000 nM | 5000 nM
Cc1ccc(S(=O)(=O)NCc2cccn3c(=O)cc(N4CCOCC4)nc23)cc1 | 6500 nM | 7400 nM | 600 nM | 18000 nM | > 20000 nM
O=C(NCc1ccccn1)c1cccn2c(=O)cc(N3CCOCC3)nc12 | 4800 nM | > 10000 nM | > 10000 nM | 20000 nM | > 20000 nM
O=C(Nc1cccn2c(=O)cc(N3CCOCC3)nc12)Oc1ccccc1 | 9000 nM | 9100 nM | 1800 nM | 7000 nM | 2500 nM
Cc1ccc(NCc2cccn3c(=O)cc(N4CCOCC4)nc23)cc1 | 6800 nM | 4600 nM | 710 nM | 5500 nM | 5800 nM
Cc1cc(NCc2ccccc2C)c2nc(N3CCOCC3)cc(=O)n2c1 |  | 20 nM |  | 1500 nM | 5000 nM
O=c1cc(N2CCOCC2)nc2c(NS(=O)(=O)c3ccccc3)cccn12 | > 10000 nM | > 10000 nM | 1700 nM | 6000 nM | 500 nM

Now from value to compound, other results behind:

IC50 [1] | IC50 [2] | IC50 [3] | SMILES | IC50 [4] | IC50 [5]
1360 nM | 1900 nM | 30 nM | Cc1ccc(C(=O)Nc2cccn3c(=O)cc(N4CCOCC4)nc23)cc1 | 900 nM | 800 nM
400 nM | 130 nM | 200 nM | Cc1cccc(CNc2cc(C)cn3c(=O)cc(N4CCOCC4)nc23)c1 | 400 nM | 1300 nM
1500 nM | 20 nM | 220 nM | Cc1cc(C(C)N(C)c2ccccc2)c2nc(N3CCOCC3)cc(=O)n2c1 (racemic) |  | 
490 nM | 3600 nM | 150 nM | O=C(Nc1ccccc1)c1cccn2c(=O)cc(N3CCOCC3)nc12 | 2000 nM | 7000 nM
1500 nM | 230 nM | 470 nM | O=c1cc(N2CCOCC2)nc2c(COc3ccccc3)cccn12 | 17000 nM | 11000 nM
1000 nM |  | 140 nM | Cc1cc(C(C)Nc2ccccc2)c2nc(N3CCOCC3)cc(=O)n2c1 (racemic) | 2800 nM | 1200 nM
1500 nM | 570 nM | 570 nM | O=c1cc(N2CCOCC2)nc2c(CSc3ccccc3)cccn12 | 7800 nM | 6300 nM
790 nM | 30 nM | 270 nM | CN(Cc1cccn2c(=O)cc(N3CCOCC3)nc12)c1ccccc1 | 12000 nM | 10000 nM
510 nM | 1800 nM | 220 nM | O=C(Nc1cccn2c(=O)cc(N3CCOCC3)nc12)c1ccccc1 | 10000 nM | 2500 nM
900 nM | 1800 nM | 640 nM | Cc1ccc(CNc2cc(C)cn3c(=O)cc(N4CCOCC4)nc23)cc1 | 400 nM | > 20000 nM
1800 nM | 1500 nM | 530 nM | Cc1ccccc1NC(=O)c1cccn2c(=O)cc(N3CCOCC3)nc12 | > 20000 nM | 11000 nM
570 nM | 1800 nM | 470 nM | Cc1cccc(C(=O)Nc2cccn3c(=O)cc(N4CCOCC4)nc23)c1 | 6000 nM | 800 nM
810 nM | 2400 nM | 270 nM | Cc1ccccc1C(=O)Nc1cccn2c(=O)cc(N3CCOCC3)nc12 | 5500 nM | 800 nM
350 nM | 2100 nM | 240 nM | COc1ccc(NCc2cccn3c(=O)cc(N4CCOCC4)nc23)cc1 | 340 nM | 9600 nM
850 nM | 3900 nM | 300 nM | Cc1cccc(NC(=O)c2cccn3c(=O)cc(N4CCOCC4)nc23)c1 | 8000 nM | 2800 nM
500 nM | 150 nM | 230 nM | Cc1cc(NCc2ccccc2)c2nc(N3CCOCC3)cc(=O)n2c1 | 100 nM | 500 nM
1800 nM | 20 nM | 470 nM | Cc1ccccc1NCc1cccn2c(=O)cc(N3CCOCC3)nc12 |  | 
1600 nM | 1400 nM | 460 nM | COc1ccc(OCc2cccn3c(=O)cc(N4CCOCC4)nc23)cc1 | 13000 nM | 14000 nM
1100 nM | 30 nM | 470 nM | O=c1cc(N2CCOCC2)nc2c(CNc3ccccc3)cccn12 |  | 
1100 nM | 240 nM | 810 nM | Cc1cccc(NCc2cccn3c(=O)cc(N4CCOCC4)nc23)c1 | 3000 nM | 
1200 nM | > 10000 nM | 140 nM | Cc1ccc(NC(=O)c2cccn3c(=O)cc(N4CCOCC4)nc23)cc1 | > 20000 nM | > 20000 nM
1500 nM | 1100 nM | 310 nM | Cc1cc(Nc2ccccc2C)c2nc(N3CCOCC3)cc(=O)n2c1 |  | 2200 nM
1700 nM | 450 nM | 410 nM | Cc1cc(Nc2ccccc2)c2nc(N3CCOCC3)cc(=O)n2c1 | 1200 nM | 3000 nM
600 nM | 630 nM | 480 nM | O=C(Nc1ccccc1)Nc1cccn2c(=O)cc(N3CCOCC3)nc12 | 7200 nM | 2900 nM
